Assay [1] deals with Sigma non-opioid intracellular receptor 1 (Homo sapiens, UniProt Q99720). As to the kind of experiment: Binding affinity to sigma 1 receptor (unknown origin) by competition binding assay.
Another assay has as its target D(3) dopamine receptor (Homo sapiens, UniProt P35462). As to the kind of experiment: Binding affinity to D3 dopamine receptor (unknown origin) by competition binding assay.
In assay [2] the target is T1, Alpha-2C adrenergic receptor (Homo sapiens, UniProt P18825).
T1 sequence (P18825 whole entry): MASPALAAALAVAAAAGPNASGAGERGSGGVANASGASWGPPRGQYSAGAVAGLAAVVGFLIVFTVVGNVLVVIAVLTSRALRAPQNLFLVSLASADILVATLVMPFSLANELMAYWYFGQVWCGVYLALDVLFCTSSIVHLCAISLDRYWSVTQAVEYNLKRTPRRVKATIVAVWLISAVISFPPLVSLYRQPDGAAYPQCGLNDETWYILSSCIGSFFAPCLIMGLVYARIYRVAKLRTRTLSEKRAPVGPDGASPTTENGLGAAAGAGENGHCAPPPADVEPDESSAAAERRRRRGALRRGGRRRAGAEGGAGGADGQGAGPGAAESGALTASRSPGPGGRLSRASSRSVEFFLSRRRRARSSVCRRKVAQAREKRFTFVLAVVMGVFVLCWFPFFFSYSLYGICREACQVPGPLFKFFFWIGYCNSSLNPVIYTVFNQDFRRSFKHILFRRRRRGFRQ
As to the kind of experiment: Binding affinity to alpha-2C adrenergic receptor (unknown origin) by competition binding assay.

Assay [3] concerns the target Sodium-dependent noradrenaline transporter (Homo sapiens, UniProt P23975). As to the kind of experiment: Binding affinity to NET (unknown origin) by competition binding assay.
In a further assay the target is Histamine H3 receptor (Homo sapiens, UniProt Q9Y5N1). The assay can be described thus: Binding affinity to histamine H3 receptor (unknown origin) by competition binding assay.
Sequence of Histamine H3 receptor (Q9Y5N1 whole entry): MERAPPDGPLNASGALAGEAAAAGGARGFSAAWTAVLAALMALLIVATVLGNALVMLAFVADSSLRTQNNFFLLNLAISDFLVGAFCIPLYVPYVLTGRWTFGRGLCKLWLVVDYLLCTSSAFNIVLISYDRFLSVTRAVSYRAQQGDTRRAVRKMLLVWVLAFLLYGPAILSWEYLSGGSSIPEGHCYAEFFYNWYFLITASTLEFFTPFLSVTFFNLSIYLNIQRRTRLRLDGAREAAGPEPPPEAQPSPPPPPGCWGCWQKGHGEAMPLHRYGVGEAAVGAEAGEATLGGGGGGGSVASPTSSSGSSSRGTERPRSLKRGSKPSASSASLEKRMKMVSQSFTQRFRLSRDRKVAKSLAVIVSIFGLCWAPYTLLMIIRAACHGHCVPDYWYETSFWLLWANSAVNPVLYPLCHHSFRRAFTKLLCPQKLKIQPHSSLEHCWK
In assay [4] the target is 5-hydroxytryptamine receptor 1D (Homo sapiens, UniProt P28221). As to the kind of experiment: Binding affinity to 5-HT 1D (unknown origin) by competition binding assay.
Sequence of 5-hydroxytryptamine receptor 1D (P28221 whole entry): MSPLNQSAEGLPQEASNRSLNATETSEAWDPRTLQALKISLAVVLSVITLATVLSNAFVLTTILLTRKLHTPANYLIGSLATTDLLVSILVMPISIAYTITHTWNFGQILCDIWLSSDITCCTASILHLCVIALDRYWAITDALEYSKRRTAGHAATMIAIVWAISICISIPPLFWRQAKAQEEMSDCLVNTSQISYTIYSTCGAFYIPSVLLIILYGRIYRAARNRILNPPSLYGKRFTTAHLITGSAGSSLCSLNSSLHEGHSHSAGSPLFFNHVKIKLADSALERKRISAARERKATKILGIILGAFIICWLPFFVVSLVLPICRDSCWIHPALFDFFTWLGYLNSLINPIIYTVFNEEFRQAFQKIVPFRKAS
Assay [5] addresses 5-hydroxytryptamine receptor 2B (Homo sapiens, UniProt P41595). As to the kind of experiment: Binding affinity to 5-HT 2B (unknown origin) by competition binding assay.
For assay [6], the target named is T2, 5-hydroxytryptamine receptor 2C (Homo sapiens, UniProt P28335).
T2 sequence (P28335 whole entry): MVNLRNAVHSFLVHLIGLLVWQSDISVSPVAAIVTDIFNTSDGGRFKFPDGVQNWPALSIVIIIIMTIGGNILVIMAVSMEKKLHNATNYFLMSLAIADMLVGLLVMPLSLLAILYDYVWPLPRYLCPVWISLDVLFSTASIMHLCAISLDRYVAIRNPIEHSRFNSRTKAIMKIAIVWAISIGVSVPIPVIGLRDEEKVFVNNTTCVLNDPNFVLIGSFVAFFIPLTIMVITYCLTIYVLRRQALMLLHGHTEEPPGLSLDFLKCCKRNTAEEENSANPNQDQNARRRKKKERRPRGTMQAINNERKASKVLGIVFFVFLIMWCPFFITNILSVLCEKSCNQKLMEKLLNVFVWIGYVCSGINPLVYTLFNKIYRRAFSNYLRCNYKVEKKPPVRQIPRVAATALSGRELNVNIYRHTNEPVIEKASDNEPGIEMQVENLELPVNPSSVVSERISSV
As to the kind of experiment: Binding affinity to 5-HT 2C (unknown origin) by competition binding assay.

Assay [7] has as its target 5-hydroxytryptamine receptor 6 (Homo sapiens, UniProt P50406). The assay can be described thus: Binding affinity to 5-HT 6 (unknown origin) by competition binding assay.
The target in assay [8] is T3, Alpha-1B adrenergic receptor (Homo sapiens, UniProt P35368).
T3 sequence (P35368 whole entry): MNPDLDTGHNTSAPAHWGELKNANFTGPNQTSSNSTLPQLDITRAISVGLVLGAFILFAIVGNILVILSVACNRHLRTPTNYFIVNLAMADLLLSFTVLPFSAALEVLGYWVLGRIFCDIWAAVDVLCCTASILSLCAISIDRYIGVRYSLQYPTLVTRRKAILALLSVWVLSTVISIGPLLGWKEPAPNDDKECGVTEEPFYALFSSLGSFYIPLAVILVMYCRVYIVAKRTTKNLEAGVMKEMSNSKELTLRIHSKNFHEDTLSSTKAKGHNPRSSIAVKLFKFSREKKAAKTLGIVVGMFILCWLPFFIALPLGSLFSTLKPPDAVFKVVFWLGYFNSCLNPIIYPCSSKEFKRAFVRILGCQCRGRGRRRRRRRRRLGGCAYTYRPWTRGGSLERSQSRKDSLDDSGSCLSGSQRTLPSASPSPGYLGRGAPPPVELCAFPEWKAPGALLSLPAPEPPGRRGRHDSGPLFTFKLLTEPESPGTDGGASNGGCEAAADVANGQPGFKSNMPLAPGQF
The assay can be described thus: Binding affinity to alpha-1B adrenergic receptor (unknown origin) by competition binding assay.

For assay [9], the target named is 5-hydroxytryptamine receptor 7 (Homo sapiens, UniProt P34969). As to the kind of experiment: Binding affinity to 5-HT 7 (unknown origin) by competition binding assay.
Sequence of 5-hydroxytryptamine receptor 7 (P34969 whole entry): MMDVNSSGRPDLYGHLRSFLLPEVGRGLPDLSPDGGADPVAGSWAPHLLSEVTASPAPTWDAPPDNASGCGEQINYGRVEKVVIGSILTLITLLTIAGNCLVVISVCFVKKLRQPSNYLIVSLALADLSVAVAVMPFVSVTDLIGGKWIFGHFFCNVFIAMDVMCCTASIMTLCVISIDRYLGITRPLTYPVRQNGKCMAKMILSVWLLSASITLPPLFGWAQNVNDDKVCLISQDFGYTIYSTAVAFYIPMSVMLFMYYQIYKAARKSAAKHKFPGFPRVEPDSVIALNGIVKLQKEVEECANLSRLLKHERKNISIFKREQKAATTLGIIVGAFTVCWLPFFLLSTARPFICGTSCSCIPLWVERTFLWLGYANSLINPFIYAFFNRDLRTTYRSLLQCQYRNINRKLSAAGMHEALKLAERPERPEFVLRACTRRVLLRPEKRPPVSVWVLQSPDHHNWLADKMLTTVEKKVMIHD
Assay [10] concerns the target 5-hydroxytryptamine receptor 1B (Homo sapiens, UniProt P28222). The assay can be described thus: Binding affinity to 5-HT 1B (unknown origin) by competition binding assay.
For assay [11], the target named is 5-hydroxytryptamine receptor 2A (Homo sapiens, UniProt P28223). The assay can be described thus: Binding affinity to 5-HT 2A (unknown origin) by competition binding assay.
Sequence of 5-hydroxytryptamine receptor 2A (P28223 whole entry): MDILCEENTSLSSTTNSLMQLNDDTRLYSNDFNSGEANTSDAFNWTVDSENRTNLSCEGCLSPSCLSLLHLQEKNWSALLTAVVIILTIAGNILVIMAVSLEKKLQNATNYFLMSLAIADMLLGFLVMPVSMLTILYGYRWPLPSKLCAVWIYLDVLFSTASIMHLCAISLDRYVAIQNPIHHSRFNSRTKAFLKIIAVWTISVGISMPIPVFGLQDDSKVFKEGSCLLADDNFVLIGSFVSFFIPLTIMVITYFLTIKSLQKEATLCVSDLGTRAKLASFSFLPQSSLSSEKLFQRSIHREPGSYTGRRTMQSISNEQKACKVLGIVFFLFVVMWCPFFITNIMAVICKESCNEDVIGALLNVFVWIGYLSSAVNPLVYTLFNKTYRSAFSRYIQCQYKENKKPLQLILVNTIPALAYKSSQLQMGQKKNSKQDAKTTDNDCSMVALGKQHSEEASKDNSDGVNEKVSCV
Assay [12] concerns the target T4, Alpha-2A adrenergic receptor (Homo sapiens, UniProt P08913).
T4 sequence (P08913 whole entry): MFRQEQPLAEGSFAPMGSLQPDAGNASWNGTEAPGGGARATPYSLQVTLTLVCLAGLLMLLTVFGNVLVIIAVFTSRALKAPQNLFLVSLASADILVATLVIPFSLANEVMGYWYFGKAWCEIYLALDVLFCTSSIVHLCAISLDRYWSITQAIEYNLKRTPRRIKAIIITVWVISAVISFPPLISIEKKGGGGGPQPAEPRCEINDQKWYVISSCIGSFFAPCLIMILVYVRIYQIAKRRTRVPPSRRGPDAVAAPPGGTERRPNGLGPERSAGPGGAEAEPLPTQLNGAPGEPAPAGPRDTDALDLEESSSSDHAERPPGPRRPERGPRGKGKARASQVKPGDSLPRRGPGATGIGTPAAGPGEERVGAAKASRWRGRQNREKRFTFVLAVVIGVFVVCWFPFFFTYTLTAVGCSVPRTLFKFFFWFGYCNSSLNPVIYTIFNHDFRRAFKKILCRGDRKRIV
The assay can be described thus: Binding affinity to alpha-2A adrenergic receptor (unknown origin) by competition binding assay.

The next assay concerns the target Mu-type opioid receptor (Homo sapiens, UniProt P35372). As to the kind of experiment: Binding affinity to mu type opioid receptor (unknown origin) by competition binding assay.

Results on two molecules are retold here after ChEMBL document CHEMBL3751848, “Receptor binding profiles and quantitative structure-affinity relationships of some 5-substituted-N,N-diallyltryptamines” (Bioorg Med Chem Lett, 2016).

Sequence of Sigma non-opioid intracellular receptor 1 (Q99720 whole entry): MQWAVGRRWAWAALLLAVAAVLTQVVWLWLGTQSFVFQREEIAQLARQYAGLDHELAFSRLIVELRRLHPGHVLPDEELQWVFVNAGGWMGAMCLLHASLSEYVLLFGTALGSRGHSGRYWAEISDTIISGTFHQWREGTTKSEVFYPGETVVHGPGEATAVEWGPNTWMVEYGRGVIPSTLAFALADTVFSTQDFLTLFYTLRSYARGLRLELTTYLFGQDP
Sequence of 5-hydroxytryptamine receptor 2B (P41595 whole entry): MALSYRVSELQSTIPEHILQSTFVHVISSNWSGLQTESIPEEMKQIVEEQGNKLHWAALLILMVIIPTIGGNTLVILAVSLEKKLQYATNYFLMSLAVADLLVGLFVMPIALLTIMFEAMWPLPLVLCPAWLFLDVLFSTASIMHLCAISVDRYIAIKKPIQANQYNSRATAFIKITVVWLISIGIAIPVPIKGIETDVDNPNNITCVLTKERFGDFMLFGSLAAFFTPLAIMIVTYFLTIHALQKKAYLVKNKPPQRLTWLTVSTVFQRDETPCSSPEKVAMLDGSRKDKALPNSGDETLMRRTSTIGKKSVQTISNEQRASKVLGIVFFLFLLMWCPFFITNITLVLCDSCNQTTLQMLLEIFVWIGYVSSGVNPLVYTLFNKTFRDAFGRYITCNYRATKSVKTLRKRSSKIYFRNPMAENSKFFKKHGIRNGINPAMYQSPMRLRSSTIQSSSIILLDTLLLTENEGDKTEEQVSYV
Sequence of 5-hydroxytryptamine receptor 6 (P50406 whole entry): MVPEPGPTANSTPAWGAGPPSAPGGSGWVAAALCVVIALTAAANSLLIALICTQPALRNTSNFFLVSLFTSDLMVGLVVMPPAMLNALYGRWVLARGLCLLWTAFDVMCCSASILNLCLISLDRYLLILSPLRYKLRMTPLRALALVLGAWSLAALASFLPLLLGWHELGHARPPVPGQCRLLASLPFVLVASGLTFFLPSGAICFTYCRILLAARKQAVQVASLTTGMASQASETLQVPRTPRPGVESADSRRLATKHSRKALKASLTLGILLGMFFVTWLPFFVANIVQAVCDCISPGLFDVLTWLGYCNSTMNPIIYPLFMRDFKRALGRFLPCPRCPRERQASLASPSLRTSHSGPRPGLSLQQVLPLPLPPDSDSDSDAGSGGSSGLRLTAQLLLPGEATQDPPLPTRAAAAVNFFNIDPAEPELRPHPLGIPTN
Sequence of Sodium-dependent noradrenaline transporter (P23975 whole entry): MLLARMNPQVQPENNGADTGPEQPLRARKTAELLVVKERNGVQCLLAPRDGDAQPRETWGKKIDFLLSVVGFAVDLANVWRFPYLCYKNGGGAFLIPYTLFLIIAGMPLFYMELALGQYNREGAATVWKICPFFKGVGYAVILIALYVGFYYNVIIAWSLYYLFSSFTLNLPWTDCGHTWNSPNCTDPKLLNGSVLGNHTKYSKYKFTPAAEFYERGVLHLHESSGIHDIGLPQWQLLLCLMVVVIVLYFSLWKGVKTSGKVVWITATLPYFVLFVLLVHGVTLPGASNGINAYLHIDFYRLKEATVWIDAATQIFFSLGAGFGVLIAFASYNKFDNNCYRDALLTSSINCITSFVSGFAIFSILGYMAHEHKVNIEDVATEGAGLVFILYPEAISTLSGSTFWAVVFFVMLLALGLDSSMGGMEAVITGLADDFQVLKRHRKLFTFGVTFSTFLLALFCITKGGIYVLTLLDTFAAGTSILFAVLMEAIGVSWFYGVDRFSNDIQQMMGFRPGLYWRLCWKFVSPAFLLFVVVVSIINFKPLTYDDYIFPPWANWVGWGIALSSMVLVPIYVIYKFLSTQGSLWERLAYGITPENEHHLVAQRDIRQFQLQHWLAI
Sequence of D(3) dopamine receptor (P35462 whole entry): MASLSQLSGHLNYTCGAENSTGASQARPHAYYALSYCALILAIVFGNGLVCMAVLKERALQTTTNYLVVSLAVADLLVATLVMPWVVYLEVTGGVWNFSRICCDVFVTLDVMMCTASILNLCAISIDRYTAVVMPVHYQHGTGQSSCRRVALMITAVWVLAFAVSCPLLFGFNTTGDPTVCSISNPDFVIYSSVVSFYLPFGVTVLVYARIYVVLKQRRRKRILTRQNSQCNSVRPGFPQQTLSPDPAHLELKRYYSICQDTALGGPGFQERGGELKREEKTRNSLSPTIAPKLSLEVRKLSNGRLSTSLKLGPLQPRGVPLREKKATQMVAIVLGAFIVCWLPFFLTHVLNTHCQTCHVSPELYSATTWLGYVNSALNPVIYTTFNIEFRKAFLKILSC
Sequence of Mu-type opioid receptor (P35372 whole entry): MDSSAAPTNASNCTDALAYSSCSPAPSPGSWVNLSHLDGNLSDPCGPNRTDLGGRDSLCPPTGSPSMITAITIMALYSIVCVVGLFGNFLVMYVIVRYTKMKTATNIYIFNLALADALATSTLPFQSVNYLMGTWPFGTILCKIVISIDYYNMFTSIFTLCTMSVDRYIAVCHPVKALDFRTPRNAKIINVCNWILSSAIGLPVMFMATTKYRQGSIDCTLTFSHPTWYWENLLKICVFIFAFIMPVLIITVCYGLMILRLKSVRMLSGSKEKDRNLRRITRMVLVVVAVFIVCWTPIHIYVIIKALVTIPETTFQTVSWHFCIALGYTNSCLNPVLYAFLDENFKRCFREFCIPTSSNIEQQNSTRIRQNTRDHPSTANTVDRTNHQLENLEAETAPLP
Sequence of 5-hydroxytryptamine receptor 1B (P28222 whole entry): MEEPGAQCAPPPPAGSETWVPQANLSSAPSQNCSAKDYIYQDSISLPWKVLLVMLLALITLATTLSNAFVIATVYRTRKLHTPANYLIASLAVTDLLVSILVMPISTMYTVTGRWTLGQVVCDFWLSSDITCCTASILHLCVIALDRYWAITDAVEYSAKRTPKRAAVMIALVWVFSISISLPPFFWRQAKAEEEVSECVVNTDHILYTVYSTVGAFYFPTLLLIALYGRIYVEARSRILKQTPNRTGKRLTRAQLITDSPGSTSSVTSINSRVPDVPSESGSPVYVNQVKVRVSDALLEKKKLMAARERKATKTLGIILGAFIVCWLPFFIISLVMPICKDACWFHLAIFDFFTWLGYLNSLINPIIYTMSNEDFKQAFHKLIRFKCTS

Consider `C=CCN(CC=C)CCc1c[nH]c2ccccc12`, for which the Ki was under 10 µM in assay [1] (read-out: Ki); 0.1 µM in assay [1] (read-out: pKi (converted)); 0.676 µM at D(3) dopamine receptor; under 10 µM in assay [2] (read-out: Ki); 0.891 µM in assay [2] (read-out: pKi (converted)); 1 µM in assay [3]. Moreover, the Ki in [4] (read-out: Ki) is under 10 µM; in assay [4] (read-out: pKi (converted)), 0.692 µM; in assay [5] (read-out: Ki) it was under 10 µM; in assay [5] (read-out: pKi (converted)) it was 0.0617 µM; in [6] (read-out: Ki), under 10 µM; in assay [6] (read-out: pKi (converted)), 0.389 µM. Further, the Ki was under 10 µM in [7] (read-out: Ki); 1.74 µM in assay [7] (read-out: pKi (converted)); 1.26 µM in [8]; under 10 µM in [11] (read-out: Ki); 0.708 µM in [11] (read-out: pKi (converted)); under 10 µM in assay [12] (read-out: Ki). The Ki was 0.123 µM in assay [12] (read-out: pKi (converted)) and under 10 µM at Mu-type opioid receptor. Besides, the pKi (on Histamine H3 receptor; in assay [9]; in assay [10]) was over 5 throughout.
Take `C=CCN(CC=C)CCc1c[nH]c2ccc(C)cc12`: the Ki is under 10 µM in [1] (read-out: Ki); 0.0741 µM in [1] (read-out: pKi (converted)); 0.692 µM on D(3) dopamine receptor; under 10 µM in assay [2] (read-out: Ki); 1.1 µM in assay [2] (read-out: pKi (converted)); under 10 µM in [4] (read-out: Ki). The Ki in assay [4] (read-out: pKi (converted)) is 0.398 µM; in assay [5] (read-out: Ki), under 10 µM; in assay [5] (read-out: pKi (converted)) it was 0.0603 µM; in [6] (read-out: Ki), under 10 µM; in [6] (read-out: pKi (converted)), 0.316 µM; in assay [7] (read-out: Ki) it was under 10 µM. The Ki in [7] (read-out: pKi (converted)) is 0.741 µM; in [8], 1.78 µM; in assay [9] it was 0.155 µM; in assay [10], 1.35 µM; in assay [11] (read-out: Ki), under 10 µM; in assay [11] (read-out: pKi (converted)), 0.724 µM. In addition, the results for the Ki (in assay [12] (read-out: Ki); in assay [12] (read-out: pKi (converted)); at Mu-type opioid receptor) were under 10 µM, 0.195 µM and under 10 µM, respectively. Further, the pKi (in assay [3]; on Histamine H3 receptor) was over 5 in each case.
